Test results as given in patent US11325899B2, “Benzofurane and benzothiophene derivatives as PGE2 receptor modulators” (IDORSIA PHARMACEUTICALS LTD, priority 2017, dated 2022).

Tests used:
PTGER4 (EP4) = biological target: T1, PTGER4 (EP4) (Homo sapiens, UniProt P35408); assay: hEP4 b-arrestin assay (PathHunter HEK 293 PTGER4 b-arrestin cells); type: cell-based; details: antagonistic activity, beta-arrestin assay; read-out: hEP4 b-arr IC50
T1 construct: host or cells: HEK 293 (PathHunter PTGER4 b-arrestin cell line)
In short: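 PathHunter HEK 293 cells expressing ProLink-tagged human EP4 and EA-β-arrestin 2, seeded 24 h before. Compounds (10 μM–2 nM or 1 μM–0.2 nM) preincubated 15 min at 37 °C, then 20 nM PGE2 (EC80) for 120 min at 37 °C. β-gal complementation luminescence read; IC50 from duplicate dose-response curves versus DMSO control.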

EP4 receptor = biological target: T2, EP4 receptor (Homo sapiens, UniProt P35408); assay: hEP4 cAMP assay (BT549 breast cancer cells, HTRF cAMP, PGE2 stimulation); type: cell-based; details: antagonistic activity, PGE2 6 nM (EC80)
T2 construct: BT549 breast cancer cells, express high endogenous EP4 levels and very low EP2 levels; host or cells: BT549 breast cancer cells
In short: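 BT549 cells, with endogenous EP4 and very low EP2, were preincubated 45 min at room temperature with compound in HBSS/HEPES/BSA buffer with 2 mM IBMX. They were then stimulated 30 min with 6 nM PGE2 (EC80). cAMP was measured by HTRF competitive immunoassay against a calibrator; IC50 from duplicate dose-response as % of DMSO control.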

T2 sequence (P35408 whole entry): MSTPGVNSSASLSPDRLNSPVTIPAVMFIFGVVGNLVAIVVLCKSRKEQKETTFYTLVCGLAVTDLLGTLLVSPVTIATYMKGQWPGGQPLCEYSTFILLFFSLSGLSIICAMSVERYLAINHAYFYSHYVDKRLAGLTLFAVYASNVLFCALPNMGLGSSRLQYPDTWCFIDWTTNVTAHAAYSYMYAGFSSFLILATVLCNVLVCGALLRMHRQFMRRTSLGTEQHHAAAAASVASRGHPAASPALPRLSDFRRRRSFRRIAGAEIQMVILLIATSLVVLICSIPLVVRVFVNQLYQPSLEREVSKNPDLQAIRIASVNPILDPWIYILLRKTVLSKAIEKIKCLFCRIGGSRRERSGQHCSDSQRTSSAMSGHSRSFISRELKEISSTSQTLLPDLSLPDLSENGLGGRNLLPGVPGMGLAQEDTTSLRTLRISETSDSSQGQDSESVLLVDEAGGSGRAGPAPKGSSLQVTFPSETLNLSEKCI
T1 sequence (P35408 whole entry): as above

| SMILES | IC50 (PTGER4 (EP4)) | IC50 (EP4 receptor) |
| --- | --- | --- |
| CCSc1cc(-c2cc(NCCc3c(C)sc4ccccc34)ncn2)ccc1C(=O)O [Example 43, 2-Ethylsulfanyl-4-{6-[2-(2-methyl-benzo[b]thiophen-3-yl)-ethylamino]-pyrimidin-4-yl}-benzoic acid] | 1080 nM | 497 nM |
| CCSc1cc(-c2cc(NCCc3c(C)oc4ccccc34)ncn2)ccc1C(=O)O [Example 44, 2-Ethylsulfanyl-4-{6-[2-(2-methyl-benzofuran-3-yl)-ethylamino]-pyrimidin-4-yl}-benzoic acid] | 1020 nM | 1380 nM |
| CCCc1cc(-c2cc(NCCc3c(C)sc4c(C)cc(F)cc34)ncn2)ccc1C(=O)O [Example 45, 4-{6-[2-(5-Fluoro-2,7-dimethyl-benzo[b]thiophen-3-yl)-ethylamino]-pyrimidin-4-yl}-2-propyl-benzoic acid] | 57 nM | 147 nM |
| Cc1sc2c(C)cc(F)cc2c1CCNc1cc(-c2cc(C(F)(F)F)c(C(=O)O)s2)ncn1 [Example 46, 5-{6-[2-(5-Fluoro-2,7-dimethyl-benzo[b]thiophen-3-yl)-ethylamino]-pyrimidin-4-yl}-3-trifluoromethyl-thiophene-2-carboxylic acid] | 93 nM | 30 nM |
| CSc1cc(-c2cc(NCCc3c(C)sc4c(C)cccc34)ncn2)cc(F)c1C(=O)O [Example 47, 4-{6-[2-(2,7-Dimethyl-benzo[b]thiophen-3-yl)-ethylamino]-pyrimidin-4-yl}-2-fluoro-6-methylsulfanyl-benzoic acid] | 807 nM | 989 nM |
| CSc1cc(-c2cc(NCCc3c(C)sc4c(C)cccc34)ncn2)cc(Cl)c1C(=O)O [Example 50, 2-Chloro-4-{6-[2-(2,7-dimethyl-benzo[b]thiophen-3-yl)-ethylamino]-pyrimidin-4-yl}-6-methylsulfanyl-benzoic acid] | 432 nM | 605 nM |
| CCOc1cc(-c2cc(NCCc3c(C)sc4c(C)cc(F)cc34)ncn2)sc1CC(=O)O [Example 52, (3-Ethoxy-5-{6-[2-(5-fluoro-2,7-dimethyl-benzo[b]thiophen-3-yl)-ethylamino]-pyrimidin-4-yl}-thiophen-2-yl)-acetic acid] | 133 nM | 231 nM |
| CCOc1cc(-c2cc(NCCc3c(C#N)sc4c(C)cc(F)cc34)ncn2)ccc1C(=O)O [Example 53, 4-{6-[2-(2-Cyano-5-fluoro-7-methyl-benzo[b]thiophen-3-yl)-ethylamino]-pyrimidin-4-yl}-2-ethoxy-benzoic acid] | 34 nM | 44 nM |
| CCOc1cc(-c2cc(NCCc3c(C#N)sc4c(OC)cccc34)ncn2)ccc1C(=O)O [Example 54, 4-{6-[2-(2-Cyano-7-methoxy-benzo[b]thiophen-3-yl)-ethylamino]-pyrimidin-4-yl}-2-ethoxy-benzoic acid] | 60 nM | 47 nM |
| CCOc1cc(-c2cc(NCCc3c(C)sc4c(OC)ccc(F)c34)ncn2)ccc1C(=O)O [Example 55, 2-Ethoxy-4-{6-[2-(4-fluoro-7-methoxy-2-methyl-benzo[b]thiophen-3-yl)-ethylamino]-pyrimidin-4-yl}-benzoic acid] | 117 nM | 138 nM |
| CCOc1cc(-c2cc(NCCc3c(C)sc4c(C)cc(F)cc34)ncn2)ccc1C(=O)O [Example 56, 2-Ethoxy-4-{6-[2-(5-fluoro-2,7-dimethyl-benzo[b]thiophen-3-yl)-ethylamino]-pyrimidin-4-yl}-benzoic acid] | 47 nM | 186 nM |

Continued, values first:

| IC50 (PTGER4 (EP4)) | IC50 (EP4 receptor) | SMILES |
| --- | --- | --- |
| 287 nM | 220 nM | CCOc1cc(-c2cc(NCCc3c(C)sc4c(OC)ccc(Cl)c34)ncn2)ccc1C(=O)O [Example 57, 4-{6-[2-(4-Chloro-7-methoxy-2-methyl-benzo[b]thiophen-3-yl)-ethylamino]-pyrimidin-4-yl}-2-ethoxy-benzoic acid] |
| 454 nM | 278 nM | CCOc1cc(-c2cc(NCCc3c(Br)sc4c(C)cc(F)cc34)ncn2)ccc1C(=O)O [Example 58, 4-{6-[2-(2-Bromo-5-fluoro-7-methyl-benzo[b]thiophen-3-yl)-ethylamino]-pyrimidin-4-yl}-2-ethoxy-benzoic acid] |
| 625 nM | 285 nM | CCOc1cc(-c2cc(NCCc3c(Cl)sc4c(C)cc(F)cc34)ncn2)ccc1C(=O)O [Example 59, 4-{6-[2-(2-Chloro-5-fluoro-7-methyl-benzo[b]thiophen-3-yl)-ethylamino]-pyrimidin-4-yl}-2-ethoxy-benzoic acid] |
| 372 nM | 344 nM | CCOc1cc(-c2cc(NCCc3c(C)sc4c(C)cccc34)ncn2)ccc1C(=O)O [Example 60, 4-{6-[2-(2,7-Dimethyl-benzo[b]thiophen-3-yl)-ethylamino]-pyrimidin-4-yl}-2-ethoxy-benzoic acid] |
| 245 nM | 356 nM | CCOc1cc(-c2cc(NCCc3c(C)sc4c(C)ccc(F)c34)ncn2)ccc1C(=O)O [Example 61, 2-Ethoxy-4-{6-[2-(4-fluoro-2,7-dimethyl-benzo[b]thiophen-3-yl)-ethylamino]-pyrimidin-4-yl}-benzoic acid] |
| 499 nM | 393 nM | CCOc1cc(-c2cc(NCCc3c(C)sc4c(C)c(F)ccc34)ncn2)ccc1C(=O)O [Example 62, 2-Ethoxy-4-{6-[2-(6-fluoro-2,7-dimethyl-benzo[b]thiophen-3-yl)-ethylamino]-pyrimidin-4-yl}-benzoic acid] |
| 461 nM | 445 nM | CCOc1cc(-c2cc(NCCc3c(C)sc4c(Cl)ccc(Cl)c34)ncn2)ccc1C(=O)O [Example 63, 4-{6-[2-(4,7-Dichloro-2-methyl-benzo[b]thiophen-3-yl)-ethylamino]-pyrimidin-4-yl}-2-ethoxy-benzoic acid] |
| 522 nM | 546 nM | CCOc1cc(-c2cc(NCCc3c(C)oc4c(C)cc(Cl)cc34)ncn2)ccc1C(=O)O [Example 64, 4-{6-[2-(5-Chloro-2,7-dimethyl-benzofuran-3-yl)-ethylamino]-pyrimidin-4-yl}-2-ethoxy-benzoic acid] |
| 428 nM | 565 nM | CCOc1cc(-c2cc(NCCc3c(C)sc4c(Cl)cc(F)cc34)ncn2)ccc1C(=O)O [Example 65, 4-{6-[2-(7-Chloro-5-fluoro-2-methyl-benzo[b]thiophen-3-yl)-ethylamino]-pyrimidin-4-yl}-2-ethoxy-benzoic acid] |
| 407 nM | 607 nM | CCOc1cc(-c2cc(NCCc3c(C)sc4c(C)ccc(Cl)c34)ncn2)ccc1C(=O)O [Example 66, 4-{6-[2-(4-Chloro-2,7-dimethyl-benzo[b]thiophen-3-yl)-ethylamino]-pyrimidin-4-yl}-2-ethoxy-benzoic acid] |
| 369 nM | 635 nM | CCOc1cc(-c2cc(NCCc3c(C)oc4c(OC)ccc(F)c34)ncn2)ccc1C(=O)O [Example 67, 2-Ethoxy-4-{6-[2-(4-fluoro-7-methoxy-2-methyl-benzofuran-3-yl)-ethylamino]-pyrimidin-4-yl}-benzoic acid] |
| 659 nM | 714 nM | CCOc1cc(-c2cc(NCCc3c(C)oc4c(Cl)cccc34)ncn2)ccc1C(=O)O [Example 68, 4-{6-[2-(7-Chloro-2-methyl-benzofuran-3-yl)-ethylamino]-pyrimidin-4-yl}-2-ethoxy-benzoic acid] |
